Laboratory results reported in ChEMBL document CHEMBL1201862, “PubChem BioAssay data set” (2004).
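Cultured in 96-well plates, cells were exposed to test compound for 48 hours across five concentrations. The concentration for 50% growth inhibition is given as GI50.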 Calls of active or inactive are those of the source. No stated cut-off is given here; in the data, active = GI50 up to about 1.1 µM and inactive = higher.

Tests used:
Experiment in all cases: inhibition of tumour cell growth, NCI panel, 48 h
[1] = system: MOLT-4
[2] = system: SF-295
[3] = system: HL-60
[4] = system: Malme-3M
[5] = system: HCT-116
[6] = system: CAKI-1
[7] = system: SNB-19
[8] = system: SNB-75
[9] = system: RPMI-8226
[10] = system: HOP-92
[11] = system: LOX IMVI
[12] = system: SK-MEL-2
[13] = system: ACHN
[14] = system: SF-539
[15] = system: 786-0
[16] = system: SW-620
[17] = system: NCI-H23
[18] = system: SK-MEL-28

Measured: GI50

COC(=O)C(=O)C(C(=O)C(=O)Nc1ccc([N+](=O)[O-])cc1C#N)c1nc2ccc([N+](=O)[O-])cc2nc1O (configuration not stated)
inactive: [1] > 100 µM | [2] > 100 µM | [3] > 100 µM | [4] > 100 µM | [5] > 100 µM | [6] 94.6 µM | [7] > 100 µM | [8] > 100 µM | [9] > 100 µM | [10] 93.1 µM | [11] > 100 µM | [12] > 100 µM | [13] > 100 µM | [14] > 100 µM | [15] > 100 µM | [16] > 100 µM

c1cc2nnsc2s1
inactive: [1] > 100 µM | [2] > 100 µM | [3] > 100 µM | [4] > 100 µM | [6] > 100 µM | [7] > 100 µM | [17] > 100 µM | [8] > 100 µM | [18] > 100 µM | [9] 93.5 µM | [10] > 100 µM | [11] 60 µM | [12] > 100 µM | [13] > 100 µM | [14] > 100 µM | [15] 44.5 µM | [16] 39.2 µM

CC1=C(C(=O)CC(=O)C(=O)Nc2ccccc2C(F)(F)F)Sc2ccccc2N1
inactive: [2] 47.4 µM | [3] 35.4 µM | [4] > 100 µM | [5] 34.8 µM | [6] 53.2 µM | [7] 35.1 µM | [17] 22.1 µM | [8] 4.23 µM | [9] 60 µM | [10] 20.8 µM | [11] 59.3 µM | [12] > 100 µM | [13] 73.3 µM | [14] 31.2 µM | [15] > 100 µM | [16] 33.7 µM

O=c1c2cc(Br)cc(Br)c2nc(CCCl)n1CCO
inactive: [1] 46.9 µM | [2] 88.3 µM | [3] 37.8 µM | [4] 52.1 µM | [5] > 100 µM | [6] 91 µM | [17] 49.9 µM | [8] 22.6 µM | [18] 52 µM | [9] 34.8 µM | [10] 28.8 µM | [11] > 100 µM | [12] > 100 µM | [13] 60.7 µM | [14] 81.3 µM | [15] > 100 µM | [16] > 100 µM

N#Cc1cc([N+](=O)[O-])ccc1NC(=O)C(=O)Nc1n[nH]c(N)n1
inactive: [1] > 100 µM | [3] > 100 µM | [4] > 100 µM | [5] > 100 µM | [6] > 100 µM | [7] > 100 µM | [17] > 100 µM | [8] > 100 µM | [18] > 100 µM | [9] > 100 µM | [10] > 100 µM | [11] > 100 µM | [12] > 100 µM | [13] > 100 µM | [14] > 100 µM | [15] > 100 µM | [16] > 100 µM

CCCn1c(SCCSc2c3ccccc3c(-c3nc(F)nc(F)n3)n2CCC)c2ccccc2c1-c1nc(F)nc(F)n1
inactive: [1] > 100 µM | [2] > 100 µM | [3] > 100 µM | [4] > 100 µM | [5] > 100 µM | [6] > 100 µM | [7] > 100 µM | [17] > 100 µM | [8] > 100 µM | [18] > 100 µM | [9] 27.3 µM | [10] > 100 µM | [12] > 100 µM | [13] 82.6 µM | [14] 38.6 µM | [15] > 100 µM | [16] 13.8 µM

CCOC(OC(C)=O)[C@@H]1C=C[C@H](C)N(c2ccc([N+](=O)[O-])cc2)O1 (some centres not stated)
inactive: [1] 1.86 µM | [2] 11.4 µM | [3] 1.82 µM | [4] 7.98 µM | [5] 1.25 µM | [6] 7.8 µM | [7] 14.7 µM | [17] 2.84 µM | [8] 4.79 µM | [18] 3.01 µM | [9] 2.06 µM | [10] 6.25 µM | [11] 1.87 µM | [12] 4.26 µM | [13] 5.13 µM | [14] 2.54 µM | [15] 2.67 µM | [16] 2.46 µM

Nc1ccccc1C(=O)/C=C/c1ccccc1O
inactive: [1] 31.3 µM | [2] > 100 µM | [3] 22.8 µM | [4] > 100 µM | [5] 38.2 µM | [6] 25.6 µM | [7] 81.1 µM | [17] 56 µM | [8] 17.5 µM | [18] > 100 µM | [9] 27.5 µM | [10] 20.6 µM | [11] 43.8 µM | [12] 28.3 µM | [14] 78.7 µM | [15] 57 µM | [16] 35.4 µM

O=C(C=C1SCCS1)/C=C\c1ccc(Cl)cc1
inactive: [1] > 100 µM | [2] > 100 µM | [3] 56.9 µM | [4] > 100 µM | [5] > 100 µM | [6] > 100 µM | [7] > 100 µM | [17] > 100 µM | [8] > 100 µM | [18] > 100 µM | [9] 31.5 µM | [10] > 100 µM | [11] 53.8 µM | [12] > 100 µM | [14] > 100 µM | [15] > 100 µM | [16] > 100 µM

CS(=O)(=O)c1nc(N)nc2nc[nH]c12
inactive: [1] > 100 µM | [2] > 100 µM | [3] > 100 µM | [5] > 100 µM | [6] > 100 µM | [7] > 100 µM | [17] > 100 µM | [18] > 100 µM | [9] > 100 µM | [10] > 100 µM | [11] > 100 µM | [12] > 100 µM | [13] > 100 µM | [14] > 100 µM | [15] > 100 µM | [16] > 100 µM

Cc1nc2c(o1)/C(=N\c1ccccc1)c1nc(C)oc1/C2=N/c1ccccc1
inactive: [1] 27.5 µM | [2] 23.4 µM | [3] 49.9 µM | [4] 19.4 µM | [5] 19.4 µM | [7] 21.2 µM | [17] 25.9 µM | [8] 11.7 µM | [18] 23.9 µM | [9] 29.6 µM | [10] 24 µM | [11] 28.2 µM | [12] 26.8 µM | [13] 17.9 µM | [14] 14.1 µM | [15] 17.7 µM | [16] 34.4 µM

CCCCCCCCCCCCCCCCOP(=O)(O)Oc1ccc(/C=C\c2ccc(OP(=O)(O)OCCCCCCCCCCCCCCCC)cc2)cc1
inactive: [1] 59 µM | [2] 29.6 µM | [3] 26 µM | [4] > 100 µM | [5] 54 µM | [6] > 100 µM | [7] 64.1 µM | [17] 23.5 µM | [8] 12 µM | [18] > 100 µM | [9] 19.3 µM | [10] 5.02 µM | [11] > 100 µM | [12] > 100 µM | [13] 40.6 µM | [15] 26.2 µM | [16] > 100 µM
